Data as given in US7029857B1, “Processes for obtaining compounds employing SNORF72 receptors” (H. Lundbeck A/S, priority 1999, dated 2006).
pKi: −log10 of the molar value. No end group written: not given here.

Assays:
[1] = tested on: vector-transfected cells; assay: Intracellular Ca2+ release in vector (mock)-transfected COS-7 cells; format: cell-based; settings: mock COS-7 cells
Procedure: A typical protocol for the DEAE-dextran method as applied to COS-7 and HEK293 cells is described as follows. Cells to be used for transfection are split 24 hours prior to the transfection to provide flasks which are 70–80% confluent at the time of transfection. Briefly, 8 μg of receptor DNA plus 8 μg of any additional DNA needed (e.g. Gα protein expression vector, reporter construct, antibiotic resistance marker, mock vector, etc.) are added to 9 ml of complete DMEM plus DEAE-dextran mixture (10 mg/ml in PBS). Cells plated into a T225 flask (sub-confluent) are washed once with PBS and the DNA mixture is added to each flask. The cells are allowed to incubate for 30 minutes at 37° C., 5% CO2. Following the incubation, 36 ml of complete DMEM with 80 μM chloroquine is added to each flask and allowed to incubate an additional 3 hours. The medium is then aspirated and 24 ml of complete medium containing 10% DMSO for exactly 2 minutes and then aspirated. […]
The compounds of interest are diluted in wash buffer (Hank's BSS (without phenol red), 20 mM HEPES, 2.5 mM probenecid) to a 4× final concentration and aliquoted into a clear v-bottom plate (Nunc). […] Compounds are added to the cell plates and responses are measured using the FLIPR™ instrument. The data are then collected and analyzed using the FLIPR™ software and Graphpad Prism. […]

[2] = target: T1, SNORF62 (Homo sapiens, UniProt Q9HB89); assay: Inositol phosphate (IP) release in SNORF62-transfected COS-7 cells; format: cell-based; parameters: The SNORF62 cDNA codes for a protein of 426 amino acids; expressed in transfected cells; host or cells: COS-7 (transient, DEAE-dextran)
T1 sequence (Q9HB89 1-426): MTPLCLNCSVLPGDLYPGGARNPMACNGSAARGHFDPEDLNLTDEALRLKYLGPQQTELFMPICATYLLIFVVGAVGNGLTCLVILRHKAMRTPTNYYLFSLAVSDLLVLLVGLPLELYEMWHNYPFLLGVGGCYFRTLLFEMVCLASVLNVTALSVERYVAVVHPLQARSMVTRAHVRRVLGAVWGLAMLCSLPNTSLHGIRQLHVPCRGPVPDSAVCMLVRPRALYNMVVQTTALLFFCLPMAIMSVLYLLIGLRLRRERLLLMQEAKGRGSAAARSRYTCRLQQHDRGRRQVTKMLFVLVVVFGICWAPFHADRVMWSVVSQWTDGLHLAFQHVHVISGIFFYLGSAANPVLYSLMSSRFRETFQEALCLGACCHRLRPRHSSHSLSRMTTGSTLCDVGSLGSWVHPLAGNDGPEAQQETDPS
Procedure: Human SNORF62 receptor-mediated activation and human SNORF72 receptor-mediated activation of the inositol phosphate (IP) second messenger pathways were assessed by radiometric measurement of IP products.
For example, in a 96 well microplate format assay, COS-7 cells expressing the receptor of interest were plated at a density of 70,000 cells per well and allowed to incubate for 24 hours. The cells were then labeled with 0.5 μCi [^3H]myo-inositol overnight at 37° C., 5% CO2. Immediately before the assay, the medium was removed and replaced with 180 μL of Phosphate-Buffered Saline (PBS) containing 10 mM LiCl. The plates were then incubated for 20 min at 37° C., 5% CO2. Following the incubation, the cells were challenged with agonist (20 μl/well; 10× concentration) for 30 min at 37° C. The challenge was terminated by the addition of 100 μL of 5% v/v trichloroacetic acid, followed by incubation at 4° C. for greater than 30 minutes. Total IPs were isolated from the lysate by ion exchange chromatography. Briefly, the lysed contents of the wells were transferred to a Multiscreen HV filter plate (Millipore) containing Dowex AG1-X8 (200–400 mesh, formate form). The filter plates were prepared adding 100 μL of Dowex AG1-X8 suspension (50% v/v, water: resin) to each well. The filter plates were placed on a vacuum manifold to wash or elute the resin bed. Each well was first washed 2 times with 200 μl of 5 mM myo-inositol. Total [^3H]inositol phosphates were eluted with 75 μl of 1.2M ammonium formate/0.1M formic acid solution into 96-well plates. 200 μL of scintillation cocktail was added to each well, and the radioactivity was determined by liquid scintillation counting.

[3] = target: T2, SNORF72 (Homo sapiens, UniProt Q9GZQ4, A395T); assay: Displacement of [125I]rat NMU-23 binding in SNORF72-transfected COS-7 membranes; settings: binding affinity, SNORF72-transfected COS-7 cells (Table 1A); read-out: SNORF72 Avg Ki
T2 construct: expressed in transfected cells; host or cells: COS-7 (transient, DEAE-dextran)
Procedure: The specifics of preparing such cell membranes may in some cases be determined by the nature of the ensuing assay but typically involve harvesting whole cells and disrupting the cell pellet by sonication in ice cold buffer (e.g. 20 mM Tris HCl, mM EDTA, pH 7.4 at 4° C.). The resulting crude cell lysate is cleared of cell debris by low speed centrifugation at 200×g for 5 min at 4° C. The cleared supernatant is then centrifuged at 40,000×g for 20 min at 4° C., and the resulting membrane pellet is washed by suspending in ice cold buffer and repeating the high speed centrifugation step. The final washed membrane pellet is resuspended in assay buffer. Protein concentrations are determined by the method of Bradford (1976) using bovine serum albumin as a standard. The membranes may be used immediately or frozen for later use.
Radioligand binding assays were performed by diluting membranes prepared from cells expressing the receptor in 50 mM Tris buffer (pH=7.4 at 0° C.) containing 0.1% bovine serum albumin (Sigma), aprotinin (0.005 mg/ml, Boehringer Mannheim) and bestatin (0.1 mM, Sigma) as protease inhibitors. The final protein concentration in the assay was 12–40 μg/ml. […] The bound ligand was separated from free by filtration through GF/B filters presoaked in 0.5% polyethyleneimine (PEI), using a Tomtec (Wallac) vacuum filtration device. After addition of Ready Safe (Beckman) scintillation fluid, bound radioactivity was quantitated using a Trilux (Wallac) scintillation counter (approximately 40% counting efficiency of bound counts). Data was fit to non-linear curves using GraphPad Prism.
In this manner, agonist or antagonist compounds that bind to the receptor may be identified as they inhibit the binding of the labeled ligand to the membrane protein of cells expressing the said receptor. Non-specific binding was defined as the amount of radioactivity remaining after incubation of membrane protein in the presence of 100 nM of the unlabeled peptide corresponding to the radioligand used. In equilibrium saturation binding assays membrane preparations or intact cells transfected with the receptor are incubated in the presence of increasing concentrations of the labeled compound to determine the binding affinity of the labeled ligand.

[4] = target: T2, SNORF72; assay: Intracellular Ca2+ release (FLIPR) in SNORF72-transfected COS-7 cells; format: cell-based; settings: SNORF72-transfected COS-7 cells, peptides at 300 nM (FIG. 8)
Target sequence in this assay (Q9GZQ4 whole entry A395T): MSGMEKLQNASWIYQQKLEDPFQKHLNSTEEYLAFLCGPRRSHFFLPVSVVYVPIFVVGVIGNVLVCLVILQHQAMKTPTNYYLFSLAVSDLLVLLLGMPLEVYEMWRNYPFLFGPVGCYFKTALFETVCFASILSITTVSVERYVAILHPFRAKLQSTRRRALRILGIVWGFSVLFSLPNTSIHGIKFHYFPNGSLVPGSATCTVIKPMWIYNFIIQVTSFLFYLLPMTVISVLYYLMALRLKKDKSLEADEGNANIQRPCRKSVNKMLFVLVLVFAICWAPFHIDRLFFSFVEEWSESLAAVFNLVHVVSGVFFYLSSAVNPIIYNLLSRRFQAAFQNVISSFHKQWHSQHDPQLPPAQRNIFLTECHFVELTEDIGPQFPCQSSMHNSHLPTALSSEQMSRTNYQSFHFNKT

With “FRVDEEFQSPFASQSRGYFLFRPRN-NH2 [human NMU-25, FRVDEEFQSPFASQSRGYFLFRPRN—NH2]” the “effect on intracellular Ca2+ release in vector-transfected cells” value [1] was “no significant effect”, the “release of IP second messengers above basal” value [2] was “approximately 2 fold” and the pKi [3] was 8.52. For the same substance, the “stimulation of intracellular Ca2+ release” value [4] was “stimulated”.
